# “Also recorded” adds a separate entry of the source. Where two headings read alike, the source gives them in different places.
# Key:
# [1] = Lethal dose 50 (LD50) in the mouse after a single oral administration; assay type: in vivo; conditions: in vivo, single administration, 14th day mortality
# Experimental: (§1) Method for studying the lethal dose 50(LD50) in the mouse after a single administration.
# (§2) Groups of 10 Swiss albine, female, adult (20-22 g of body weight) mice, fasting from the evening preceding the test, are treated orally with various doses of the test drug suspended in hydroxyethylcellulose (0.50% weight/volume).
# (§3) Thereafter, the animals are fed again.
# (§4) LD50 is calculated by the method of Litchfield J. T. and Wilcoxon F. (J. Pharmacol. 96, 99-113, 1949) by utilizing the mortality data as obtained on the 14th day after the test drug administration.
# mouse [2] = experiment: as above; assay type: in vivo; conditions: in comparison with acetylsalicylic acid
# Experimental: as §1, §2, §3, §4
# bronchial secretion = experiment: Bronchosecretagogue activity: quantitative evaluation of the bronchial secretion of rabbit (Scuri et al.); assay type: in vivo, rabbit (adult male brown); conditions: oral
# From the text: Method of quantitative evaluation of the bronchial secretion of rabbit according to Scuri R. et al. Boll. Chim. Farm. […] Adult male brown rabbits (2.8-3.5 kg of body weight) are employed, to which a T shaped tracheal cannula, by surgical operation, as described in the mentioned bibliographic reference, is applied. To the cannula, a container for periodical collection of the bronchial secretion is applied. The study of mucoproduction, started at the fourth day after the operation, is divided into two periods, each of 4 hours, for collecting and measuring the mucus secreted. The action of the drug under examination, is tested by administering the same orally at the begining of the second mucus collection period and evaluating the percent increase of mucus production (as measured gravimetrically in the second period in comparison with the first period).
# [3] = test system: carrageenin induced oedema; experiment: Anti-oedemigenous activity: carrageenin induced oedema (Winter et al.); assay type: in vivo, rat (female albine Wistar); conditions: for ED40: 3 h, read-out: Anti-oedemigenous activity ED40
# Experimental: Method of carrageenin induced oedema according to Winter C. A. et al--Proc. Soc. […] Female albine Wistar rats (120-160 g of body weight) are utilized. The drug under test is administered orally one hour before injection into the right hind paw of a carrageenin water suspension (1% volume injected ml 0.05).
# pleural exudate = experiment: Anti-exudative activity: quantitative evaluation of the pleural exudate of a rat (carrageenin pleuritis); assay type: in vivo, rat (female albine Wistar); conditions: for ED50: 6 h, read-out: Anti-exudative activity ED50
# Experimental: Method of the quantitative evaluation of the pleural exudate of a rat according to Vinegar E. et al.-Proc. Soc. […] Female albine Wistar rats (average weight 160 g), fasting from the evening preceding the test, are used. The experimental pleuritis is induced by injecting into the pleural cavity, under ethereal anesthesia, 0.15 ml of a 1% carrageenin solution (Prodotti Gianni-Milano). The test drug is administered orally, half an hour before the carrageenin. Six hours after the carrageenin injection, the animals are sacrificed and volumetric measurement of the pleural exudate, as withdrawn by a syringe, is performed.
# [4] = test system: phenylquinone abdominal contractions; experiment: Analgesic activity: phenylquinone method (abdominal contractions); assay type: in vivo, mouse (female Swiss albine); conditions: for ED50: read-out: Analgesic activity ED50; for analgesic activity (in words): oral, comparison with acetylsalicylic acid
# Experimental: Female Swiss albine mice (20-25 g), fasting for 2 hours, are utilized.
# The test drug is administered orally 30 minutes before the endoperitoneal injection of phenylquinone (0.08 mg/mouse).
# The characteristic abdominal contractions are counted individually during a 20 minutes period.
# yeast induced pyrexia = experiment: Antipyretic activity: yeast induced pyrexia in the rat; assay type: in vivo, rat (female Wistar albine); conditions: for ED50: oral simultaneously with yeast, Temperature Index
# Experimental: Method of yeast induced pyrexia in the rat. Female Wistar albine rats, weighing 100-140 g, are utilized. The animals having a basal rectal temperature from 36° to 37° C. are selected. The testing substances are administered orally simultaneously with the pyretic agent (dry brewers' yeast suspended in water at the 20% concentration, administered volume 15 ml/kg, subcutaneously) to groups of 5 animals per dose. After 4, 5, 6, 7 and 24 hours from the treatment, the rectal temperature of the animals is recorded by an Ellab RM6 probe, connected to an Ellab-mod. TE-3 thermometer. The activity of the drugs is evaluated by utilizing a Temperature Index, which is given by the algebraic sum of the differences in the rectal temperature between the measure values at different times and the basal value;
# [5] = Gastric tolerability: gastric ulcerogenesys by repeated drug administrations; assay type: in vivo, rat (female Wistar albine); conditions: rat, in vivo, po
# Experimental: (§5) Method of gastric ulcerogenesys by repeated drug administrations.
# (§6) Fed female Wistar albine rats (140-160 g of initial body weight) are used.
# (§7) The drug under test is administered orally, daily, for five days. At the end of the test the stomach of the rats is withdrawn, it is dissected along the lesser curvature, washed and observed in order to disclose the presence of either gastric lesions or manifest submucosa hemorrhages.
# (§8) The "ulcerogenic dose 50" (UD50) is defined as the daily dose able to induce lesions or hemorrhages in 50% of the animals treated.
# stomach [6] = experiment: as above; assay type: in vivo, rat (female Wistar albine); conditions: rat
# Experimental: as §5, §6, §7, §8
# mouse [7] = conditions: literature datum, Hart E R J. Pharm. Exp. Ther. 89 205, 1947; 20160 min; cited from earlier work
# stomach [8] = conditions: Arrigono-Martelli, Meth. Find. Exp. Clin. Pharmacol. 1, 157, 1979; 7200 min; cited from earlier work
smiles,measurement,setting,value
"CC1=CCC(CC(=O)Oc2ccccc2C(=O)O)C1(C)C (single isomer, unassigned) [CO/1473, 2-(2,2,3-trimethyl-3-cyclopentene-1-acetoxy)benzoic acid]",LD50 at 336 h,[1],913 mg/kg
same,acute toxicity (in words),mouse [2],low acute toxicity
same,ED50,"bronchial secretion; Oryctolagus cuniculus, 4 h, percent increase of mucus production",60 mg/kg
same,bronchosecretagogue activity (in words),bronchial secretion,has bronchosecretagogue activity in the rabbit
same,ED40,"[3]; rat, oral one hour before carrageenin, paw volume after three hours",400 mg/kg
same,anti-oedemigenous activity in comparison with acetylsalicylic acid (in words),"[3]; rat, oral, first test of Table 3",superior in the first test
same,ED50,"pleural exudate; rat, oral half an hour before carrageenin, exudate volume after six hours",320 mg/kg
same,anti-exudative activity in comparison with acetylsalicylic acid (in words),"pleural exudate; rat, oral, second test of Table 3",slightly inferior in the second
same,ED50,"[4]; mouse, oral 30 minutes before phenylquinone",52 mg/kg
same,analgesic activity (in words),[4]; mouse,slightly more active than acetylsalicylic acid
same,ED50,yeast induced pyrexia,400 mg/kg
same,antipyretic activity (in words),"yeast induced pyrexia; oral, comparison with acetylsalicylic acid","interesting antipyretic activity in the rat, though lower than the one of acetylsalicylic acid"
same,NOAEL at 120 h,[5],800 mg/kg
same,gastro-damaging effect (in words),"stomach [6]; up to the maximum dose of 800 mg/kg os/die for 5 days, listed as compound of the invention, 800 mg/kg",does not show any gastro-damaging effect; also recorded: very good gastric tolerability
"CC(=O)Oc1ccccc1C(=O)O [acetylsalicylic acid, reference compound]",Bronchosecretagogue activity ED50,bronchial secretion; percent increase of mucus production,inactive
same,ED40,"[3]; Rattus norvegicus, po",400 mg/kg
same,ED50,"pleural exudate; Rattus norvegicus, po",215 mg/kg
same,ED50,"[4]; Mus musculus, po",70 mg/kg
same,analgesic activity (in words),[4]; mouse,good analgesic activity in the mouse
same,ED50,yeast induced pyrexia,157 mg/kg
same,"gastro-damaging dose, times lower than that of CO/1473","stomach [6]; oral, acetylsalicylic acid dose versus CO/1473 dose",16 times lower
same,LD50,mouse [7],1100 mg/kg os.
same,UD50 (ulcerogenic dose 50),stomach [8],48 mg/kg os.
